# Laboratory results: US20210330606A1, “GLUCOSE CONSUMPTION ACCELERATOR AND GLYCOLYSIS ACCELERATOR” (SHINKO SANGYO Co., Ltd., priority 2018, published 2021)
# What was measured:
# [1] = system: Rat-derived fibroblasts (Py-3Y1-S2, subculture strain); test: Lactate concentration in culture solution of fibroblasts (relative value, control = 100); assay type: cell-based; conditions: drug 1 mg/ml, control = 100 (FIG. 7A)
# Method: (§1) First, samples of 2-amino-1-cyclohexylethanol and 2-amino-1-phenylethanol were prepared in the same manner as in Example 1. The fibroblasts and the liver cancer cells were cultured under the same conditions as in Examples 1 and 5. […] As a control, the culture was performed in the same manner except that distilled water to which the drug was not added was added to the culture solution instead of the sample.
# (§2) After the addition of the drug, the culture solution was diluted so that the weight ratio of the culture solution to distilled water was 1:19, and the lactate concentration of the diluted culture solution was measured. The lactate concentration was measured using a lactate assay kit (product name: Lactate Assay Kit-WST, product of Dojindo Laboratories).
# [2] = system: rat-derived liver cancer cells (Ry121B, subculture line); test: Lactate concentration in culture solution of liver cancer cells (relative value, control = 100); assay type: cell-based; conditions: drug 1 mg/ml, control = 100 (FIG. 7B)
# Method: as §1, §2
# [3] = system: rat-derived liver cancer cells (Ry121B, subculture line); conditions: drug 1 mg/ml, control = 100
# Method: After the addition of the drug, the glucose concentration of each of the culture solutions was measured immediately after the start of the culture and after the completion of the culture. The glucose concentration was measured using a glucose assay kit (Waco). Then, the glucose concentration after the completion of the culture was divided by the glucose concentration immediately after the start of the culture (5.6 mmol per liter) to calculate the glucose consumption.
compound,measurement,setting,value
NCC(O)c1ccccc1 (stereo not drawn) [2-amino-1-phenylethanol],relative value of lactate concentration,[1],about 185
same,relative value of lactate concentration,[2],about 135
same,relative value of glucose consumption,[3],about 140
